According to patent publication US8969325B2, “TRPV1 antagonists” (AbbVie Inc., priority 2011, dated 2015):

Experiments:
[1] = biological target: T1, human TRPV1 (Homo sapiens (Human), UniProt Q8NER1); assay: Capsaicin Activation Assay (intracellular Ca2+, FLIPR); format: cell-based; conditions: recombinant HEK293 cells expressing hTRPV1, 50 nM capsaicin
Method: (Logan, Utah). Dulbecco's phosphate-buffered saline (D-PBS) (with 1 mg/mL glucose and 3.6 mg/l Na pyruvate, without phenol red), L-glutamine, hygromycin B, and Lipofectamine® were obtained from Life Technologies (Grand Island, N.Y.). G418 sulfate was obtained from Calbiochem-Novabiochem Corp. (San Diego, Calif.). […] (St. Louis, Mo.). […] The cDNA for human TRPV1 (hTRPV1) was isolated by reverse transcriptase-polymerase chain reaction (RT-PCR) from human small intestine poly A+ RNA supplied by Clontech (Palo Alto, Calif.) using primers designed surrounding the initiation and termination codons identical to the published sequences (Hayes et al. […] The resulting cDNA PCR products were subcloned into pCIneo mammalian expression vector (Promega) and fully sequenced using fluorescent dye-terminator reagents (Prism, PerkinElmer Applied Biosystems Division) and a PerkinElmer Applied Biosystems Model 373 DNA sequencer or Model 310 genetic analyzer. Expression plasmids encoding the hTRPV1 cDNA were transfected into HEK293 cells using Lipofectamine®. Forty-eight hours after transfection, the neomycin-resistant cells were selected with growth medium containing 800 μg/mL Geneticin (Life Technologies, formerly Gibco BRL). Surviving individual colonies were isolated and screened for TRPV1 activity. […] Compound stocks, 10 mM, were prepared in DMSO, and diluted serially across a 384-well plate using a Bravo BenchCel workstation (Agilent Technologies, Santa Clara, Calif.). […] On the day prior to the experiment, the recombinant HEK293 cells expressing human TRPV1 (hTRPV1) were removed from tissue culture flasks and plated in growth medium into black-walled clear-bottom 384-well Biocoat™ poly-D-lysine assay plates (BD Biosciences, Bedford, Mass.) using a Multidrop® dispenser (ThermoScientific, Waltham, Mass.). […] Molecular Devices, Sunnyvale, Calif.) was added to each well using the Multidrop® dispenser. […] Fluorescence readings were made at 1 to 5 second intervals over the course of the experimental run.

[2] = biological target: T1, human TRPV1; assay: Acid Activation Assay (pH 5.0, intracellular Ca2+, FLIPR); format: cell-based; conditions: percentage of the maximal pH 5.0-induced response remaining; recombinant HEK293 hTRPV1 cells; maximum concentration tested 37.5 μM
Method: Dulbecco's modified Eagle's medium (DMEM) with 4.5 m g/mL D-glucose, fetal bovine serum, L-glutamine, and 2-morpholinoethanesulfonic acid (MES) were purchased from Sigma-Aldrich Co. (St. Louis, Mo.). Dulbecco's phosphate-buffered saline (DPBS) with Ca^2+, Mg^2+, and 1 mg/mL D-glucose (pH 7.4), Geneticin®, 0.25% trypsin-1 mM EDTA, and penicillin-streptomycin were purchased from Invitrogen Corp. (Carlsbad, Calif.). The FLIPR® Calcium 4 assay kit was purchased from Molecular Devices (Sunnyvale, Calif.).
The cDNA for human TRPV1 (hTRPV1) was isolated by reverse transcriptase-polymerase chain reaction (RT-PCR) from human small intestine poly A+ RNA supplied by Clontech (Palo Alto, Calif.) using primers designed surrounding the initiation and termination codons identical to the published sequences (Hayes et al. Pain 2000, 88, 205-215). The resulting cDNA PCR products were subcloned into pCIneo mammalian expression vector (Promega) and fully sequenced using fluorescent dye-terminator reagents (Prism, PerkinElmer Applied Biosystems Division) and a PerkinElmer Applied Biosystems Model 373 DNA sequencer or Model 310 genetic analyzer. Expression plasmids encoding the hTRPV1 cDNA were transfected into HEK293 cells using Lipofectamine®. Forty-eight hours after transfection, the neomycin-resistant cells were selected with growth medium containing 800 μg/mL Geneticin (Life Technologies, formerly Gibco BRL). Surviving individual colonies were isolated and screened for TRPV1 activity. Cells expressing recombinant TRPV1 were maintained at 37° C. in DMEM containing 4 mM L-glutamine, 300 μg/mL G418 (Calbiochem) and 10% fetal bovine serum under a humidified 5% CO2 atmosphere.
The functional activity of compounds at the TRPV1 receptor was determined by measurement of intracellular Ca^2+ levels ([Ca^2+]i) using the Fluorescence Imaging Plate Reader (FLIPR)TETRA®. All compounds were tested over a 12-point one-half-log concentration range with 37.5 μM being the maximum concentration tested. Compound stocks, 10 mM, were prepared in DMSO, and diluted serially across a 384-well plate using a Bravo BenchCel workstation (Agilent Technologies, Santa Clara, Calif.). On the day prior to the experiment, the recombinant HEK293 cells expressing human TRPV1 (hTRPV1) were removed from tissue culture flasks and plated in growth medium into black-walled clear-bottom 384-well Biocoat™ poly-D-lysine assay plates (BD Biosciences, Bedford, Mass.) using a Multidrop® dispenser (ThermoScientific, Waltham, Mass.). On the day of the experiment growth medium was removed, and the no-wash FLIPR® Calcium-4 dye (λEX=470-495 nm, λEM=515-575 nm) was added to each well using the Multidrop® dispenser. The plated cells were incubated for 90-120 min in the dark at 25° C. The test compounds dissolved in DMSO were then added to the plates using an Agilent Bravo workstation (Agilent Technologies Inc., Santa Clara, Calif.). Three minutes later, a pH 5.0 solution was added to each well. Reagents were delivered at a rate of 40 μL/sec, and the final assay volume was 80 μL. Acidic pH solutions were prepared by titration of DPBS/MES with 1 N HCl. The intensity of the fluorescence was captured and digitally transferred to an interfaced PC. The maximum peak measured for the concentration range tested was used to calculate the corresponding peak increase in fluorescence over baseline (relative fluorescence units) which was expressed as the percentage (max % remain) of the maximal pH 5.0-induced response.
Table 1 reports the percentage (max % remain) of the maximal pH 5.0-induced response measured for the compounds tested in the recombinant HEK293 cell assay. Most of the compounds tested inhibited calcium flux only partially following TRPV1 activation by the pH 5.0 solution.

T1 sequence (Q8NER1 whole entry): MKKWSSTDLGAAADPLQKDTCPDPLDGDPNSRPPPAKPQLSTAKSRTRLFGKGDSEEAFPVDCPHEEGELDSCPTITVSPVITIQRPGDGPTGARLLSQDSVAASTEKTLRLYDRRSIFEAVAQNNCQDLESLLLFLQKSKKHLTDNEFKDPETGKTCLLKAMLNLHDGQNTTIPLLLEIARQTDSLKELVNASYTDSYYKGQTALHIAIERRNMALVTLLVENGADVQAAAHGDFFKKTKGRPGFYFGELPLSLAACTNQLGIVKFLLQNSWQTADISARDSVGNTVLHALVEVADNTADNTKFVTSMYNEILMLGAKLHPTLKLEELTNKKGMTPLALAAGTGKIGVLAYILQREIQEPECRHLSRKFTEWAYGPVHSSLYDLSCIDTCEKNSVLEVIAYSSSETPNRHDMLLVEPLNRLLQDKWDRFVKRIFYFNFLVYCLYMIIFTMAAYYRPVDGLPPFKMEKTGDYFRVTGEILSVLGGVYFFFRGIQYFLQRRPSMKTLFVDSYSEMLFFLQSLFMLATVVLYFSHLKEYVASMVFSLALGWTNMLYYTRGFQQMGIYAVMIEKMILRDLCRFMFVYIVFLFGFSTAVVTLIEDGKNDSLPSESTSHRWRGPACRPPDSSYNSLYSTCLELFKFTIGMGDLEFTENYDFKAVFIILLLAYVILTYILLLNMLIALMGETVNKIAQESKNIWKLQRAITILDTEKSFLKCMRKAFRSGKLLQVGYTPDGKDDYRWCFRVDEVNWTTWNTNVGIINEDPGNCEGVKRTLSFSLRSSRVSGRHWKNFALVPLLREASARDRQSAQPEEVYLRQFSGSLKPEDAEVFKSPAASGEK

Row | SMILES | IC50 [1] [nM] | human TRPV1 H^+ (max % remain) [2] [%]
1 | CN1C(=O)CCc2c(NC(=O)N[C@@H]3CC(CF)(CF)Oc4cc(Cl)ccc43)cccc21 [Example 254, 1-[(4R)-7-chloro-2,2-bis(fluoromethyl)-3,4-dihydro-2H-chromen-4-yl]-3-(1-methyl-2-oxo-1,2,3,4-tetrahydroquinolin-5-yl)urea] | 130 | 73
2 | CN1Cc2ccc(NC(=O)N[C@H]3CCOc4cc(OC(F)(F)F)ccc43)cc2NC1=O [Example 194, 1-(3-methyl-2-oxo-1,2,3,4-tetrahydroquinazolin-7-yl)-3-[(4S)-7-(trifluoromethoxy)-3,4-dihydro-2H-chromen-4-yl]urea] | 1800 | 52
3 | CC1(C)C[C@@H](NC(=O)Nc2ccc3c(c2)NC(=O)CO3)c2cccc(F)c2O1 [Example 100, 1-[(4R)-8-fluoro-2,2-dimethyl-3,4-dihydro-2H-chromen-4-yl]-3-(3-oxo-3,4-dihydro-2H-1,4-benzoxazin-6-yl)urea] | 310 | 95
4 | CN1Cc2ccc(NC(=O)N[C@@H]3CC(C)(C)Oc4c3ccc(F)c4Cl)cc2NC1=O [Example 172, 1-[(4R)-8-chloro-7-fluoro-2,2-dimethyl-3,4-dihydro-2H-chromen-4-yl]-3-(3-methyl-2-oxo-1,2,3,4-tetrahydroquinazolin-7-yl)urea] | 210 | 51
5 | CN1Cc2ccc(NC(=O)N[C@@H]3CC(C)(C)Oc4cc(F)ccc43)cc2NC1=O [Example 176, 1-[(4R)-7-fluoro-2,2-dimethyl-3,4-dihydro-2H-chromen-4-yl]-3-(3-methyl-2-oxo-1,2,3,4-tetrahydroquinazolin-7-yl)urea] | 120 | 50
6 | CC1(C)C[C@@H](NC(=O)Nc2ccc3c(c2)NC(=O)N(CCO)C3)c2cccc(F)c2O1 [Example 42, 1-[(4R)-8-fluoro-2,2-dimethyl-3,4-dihydro-2H-chromen-4-yl]-3-[3-(2-hydroxyethyl)-2-oxo-1,2,3,4-tetrahydroquinazolin-7-yl]urea] | 510 | 8
7 | O=C1CCc2ccc(NC(=O)N[C@@H]3CCOc4ccccc43)cc2N1 [Example 220, 1-[(4R)-3,4-dihydro-2H-chromen-4-yl]-3-(2-oxo-1,2,3,4-tetrahydroquinolin-7-yl)urea] | 190 | 41
8 | CN1C(=O)NCc2c(NC(=O)N[C@@H]3CCOc4ccccc43)cccc21 [Example 168, 1-[(4R)-3,4-dihydro-2H-chromen-4-yl]-3-(1-methyl-2-oxo-1,2,3,4-tetrahydroquinazolin-5-yl)urea] | 1200 | 28
9 | CN1C(=O)CCc2ccc(NC(=O)N[C@@H]3C[C@](C)(C(F)(F)F)Oc4ccccc43)cc21 [Example 326, 1-(1-methyl-2-oxo-1,2,3,4-tetrahydroquinolin-7-yl)-3-[(2R,4R)-2-methyl-2-(trifluoromethyl)-3,4-dihydro-2H-chromen-4-yl]urea] | 32 | 80
10 | CCC1(CC)C[C@@H](NC(=O)Nc2cccc3c2ccc(=O)n3C)c2ccc(OC(F)(F)F)cc2O1 [Example 76, 1-[(4R)-2,2-diethyl-7-(trifluoromethoxy)-3,4-dihydro-2H-chromen-4-yl]-3-(1-methyl-2-oxo-1,2-dihydroquinolin-5-yl)urea] | 32 | 17
11 | CC1(C)C[C@@H](NC(=O)Nc2ccc3c(c2)NC(=O)N(CCO)C3)c2ccc(Br)cc2O1 [Example 63, 1-[(4R)-7-bromo-2,2-dimethyl-3,4-dihydro-2H-chromen-4-yl]-3-[3-(2-hydroxyethyl)-2-oxo-1,2,3,4-tetrahydroquinazolin-7-yl]urea] | 97 | 3
12 | C[C@@]1(C(F)F)C[C@@H](NC(=O)Nc2ccc3c(c2)NC(=O)N(CCO)C3)c2ccccc2O1 [Example 318, 1-[(2S,4R)-2-(difluoromethyl)-2-methyl-3,4-dihydro-2H-chromen-4-yl]-3-[3-(2-hydroxyethyl)-2-oxo-1,2,3,4-tetrahydroquinazolin-7-yl]urea] | 590 | 14
13 | Cn1c(=O)ccc2c(NC(=O)N[C@@H]3CC(C)(C)Oc4cc(Br)ccc43)cccc21 [Example 89, 1-[(4R)-7-bromo-2,2-dimethyl-3,4-dihydro-2H-chromen-4-yl]-3-(1-methyl-2-oxo-1,2-dihydroquinolin-5-yl)urea] | 31 | 53
14 | CN1C(=O)NCc2c(NC(=O)N[C@@H]3CCOc4cc(F)ccc43)cccc21 [Example 159, 1-[(4R)-7-fluoro-3,4-dihydro-2H-chromen-4-yl]-3-(1-methyl-2-oxo-1,2,3,4-tetrahydroquinazolin-5-yl)urea] | 600 | 21
15 | CN1C(=O)NCc2c(NC(=O)N[C@@H]3CC(CF)(CF)Oc4c(Cl)cccc43)cccc21 [Example 148, 1-[(4R)-8-chloro-2,2-bis(fluoromethyl)-3,4-dihydro-2H-chromen-4-yl]-3-(1-methyl-2-oxo-1,2,3,4-tetrahydroquinazolin-5-yl)urea] | 100 | 33
16 | O=C1COc2ccc(NC(=O)N[C@@H]3CCc4cc(Cl)ccc43)cc2N1 [Example 119, 1-[(1R)-5-chloro-2,3-dihydro-1H-inden-1-yl]-3-(3-oxo-3,4-dihydro-2H-1,4-benzoxazin-6-yl)urea] | 170 | 110
17 | CN1C(=O)CCc2ccc(NC(=O)N[C@@H]3C[C@@](C)(CF)Oc4cc(C(F)(F)F)ccc43)cc21 [Example 289, 1-[(2S,4R)-2-(fluoromethyl)-2-methyl-7-(trifluoromethyl)-3,4-dihydro-2H-chromen-4-yl]-3-(1-methyl-2-oxo-1,2,3,4-tetrahydroquinolin-7-yl)urea] | 230 | 68
18 | CN1C(=O)CCc2ccc(NC(=O)N[C@@H]3C[C@@](C)(CF)Oc4cc(Cl)ccc43)cc21 [Example 291, 1-[(2S,4R)-7-chloro-2-(fluoromethyl)-2-methyl-3,4-dihydro-2H-chromen-4-yl]-3-(1-methyl-2-oxo-1,2,3,4-tetrahydroquinolin-7-yl)urea] | 26 | 71
